{"source": "patent US9034826B2", "about": "“Use of epidermal growth factor for the morphofunctional restoration of peripheral nerves in diabetic neuropathy” (Centro de Ingenieria Genetica y Biotecnologia, priority 2006, dated 2015)", "key": {"diabetic rats [1]": {"test_system": "diabetic rats", "test": "Conduction velocity of motor fibers, reversion study (Example 2)", "format": "in vivo, Wistar rats", "conditions": "established diabetic neuropathy, 100 μg EGF in 1 ml i.p. 3 days a week for one month, day 120 after induction of diabetes", "protocol": "(§1) Distal supra-maximal stimulation in the sciatic-tibial route using bipolar electrodes is was used to study motor conduction. Determination of the conduction velocity in the sensory routes was carried out by applying a stimulus at a proximal point in the tail and measure it 3 cm away.\n(§2) The aim of this study was to evaluate the neurorestoration effect of the pharmaceutical composition. Male Wistar rats between 200-250 grams of body is weight received a subcutaneous injection of streptozotocin at 75 mg/kg in sodium citrate buffer, and were allowed to evolve until 120 days after disease induction. All rats used in this experiment had shown sustained glucose levels above 15 mmol/L. Animals were handled and fed as previously described. A concurrent control group was set, where animals received saline instead of streptozotocin. […] After this period an electrophysiological characterization of all rats were done and animals were split in two random treatment groups:\n(§3) Group II. Animals received the pharmaceutical composition with 100 μg of EGF in 1 ml, 3 days a week, by intraperitoneal route.\nTo check the effect of the pharmaceutical composition on the restoration of sensory and motor fibers the conduction velocity of an electric impulse was measured at day 120 after induction of diabetes, after treating the animals with the pharmaceutical composition or saline. […]"}, "Lipoprotein Lipase (LPL)": {"test_system": "Lipoprotein Lipase (LPL)", "test": "Lipoprotein lipase (LPL) enzymatic activity in sciatic nerve fragments, prevention study (Example 1)", "format": "in vivo, Wistar rats", "protocol": "(§4) Male Wistar, with 200-250 grams of body weight, received a subcutaneous injection of streptozotocin, at 75 mg/kg in sodium citrate buffer. Water was then replaced by a 10% sucrose solution during the next 24 h, to prevent deaths caused by hypoglycemia. Glucose levels in blood were monitored every morning during the next 72 hours after the injection. Only animals with sustained glucose values above 15 mmol/L were used. Rats were housing at 4 per cage and fed in the conventional way. A concurrent group of other 80 rats received citrate buffer without streptozotocin and was handled in a similar fashion to the diabetic group. The average value for glycemia during the 72 hours in this group was 5.87 mmol/L.\n(§5) All treatments were conducted during 8 weeks, starting one week after streptozotocin injection. The composition used contained 75 μg of human recombinant EGF/ml. Several types of observations were conducted in the animals under study:\nFragments of the nerve from each animal were incubated together with 3 μg/ml heparin in Krebs-Ringer buffer at 37° C. for 50 minutes. Aliquots from these samples were then incubated in the presence of [^14C] triolein-phosphatidylcholine. ^14C labeled fatty acids were quantified by the classic methods. LPL activity was expressed in nanomoles of released fatty acids (RFA) per minute and gram of tissue."}, "diabetic rats [2]": {"test_system": "diabetic rats", "test": "Nociceptive threshold (NCT) pain test, reversion of established diabetic neuropathy (Example 2)", "format": "in vivo, Wistar rats", "conditions": "100 μg EGF in 1 ml i.p. 3 days a week for one month, day 120 after induction of diabetes", "protocol": "The pain test, by application of an increasing pressure in the tail, was carried out at days 28 and 56 after initiation of the treatment, using 10 animals per each one of the experimental groups. NCT, expressed in grams, was determined by using an Ugo Basile type analgesimeter to apply a gradually increasing pressure to the tail of the animals until they developed a withdrawal reflex. In human diabetic neuropathy the nociceptive threshold is reduced.\nas §2\nGroup II. Animals received the pharmaceutical composition with 100 μg of EGF in 1 ml, 3 days a week, by intraperitoneal route. […]"}, "right sciatic nerve": {"test_system": "right sciatic nerve", "test": "Laser Doppler Perfusion Imaging of blood perfusion of a peripheral nerve, prevention study (Example 1)", "format": "in vivo, Wistar rats", "conditions": "diabetic rats, 75 μg EGF/ml, two months", "protocol": "as §4, §5\nThe right sciatic nerve of rats was used as a model. Ten animals were included for each one of the experimental groups. A similar number of non diabetic rats were used to calculate the reference values. A Laser Doppler Perfusion Imaging (LDPI) system was used. Data of perfusion in peripheral tissues to the nerve were programmed as zero values. Control animals received saline during two months before the measurement. […]"}, "diabetic animals": {"test_system": "diabetic animals", "test": "Findings in diabetic animals after injection or infiltration of the composition (summary)", "format": "in vivo", "conditions": "after three systemic injections or local infiltrations at the periphery of the nerve trunks"}, "[3]": {"test_system": "Redox state in fragments of sciatic nerve", "test": "Redox profile in fragments of sciatic nerve, reversion study (Example 2)", "format": "in vivo, Wistar rats", "conditions": "established diabetic neuropathy, 100 μg EGF in 1 ml i.p. 3 days a week for one month", "protocol": "as §2, §3\nOne month after conclusion of the treatment with either EGF containing composition or saline, and […] after disease induction, animals were sacrificed by an overdose of anesthesia and perfused with saline buffer pH 7.4. A total of ten animals per experimental group were included for histomorphometric studies, and an equivalent number of rats were used for biochemical determinations. In both systems the sciatic nerves from both limbs were dissected. The procedures were similar to those described for the neuropathic damage prevention assay. Samples taken for histological and o histomorphometric studies were stained with hematoxilin/eosin and toluidine blue. At least five fragments of the same nerve were quantitatively studied using MADIP program. The fragments were included in OCT blocks, post-fixed with glutaraldehyde, and sliced horizontal and transversally. The histological indicators assessed have been described above as well as the procedures used for the processing and evaluation: • Total number of blood vessels (in epineural/perineural) in 10 microscopic fields using 10× as constant magnification in longitudinal cuts of the nerve. • Percentage of demyelinated fibers. Evaluated by averaging the values per microscopic field (×20, at least five fields). • Percentage of myelin or non-myelin fibers with lesions (dilated or distorted) per microscopic field (×20, at least five fields). • Percentage of endoneurial collagenization (moderated: 25 to 50%; severe: more than 50% of the endoneurial area in transversal slices, and at least three different sections.\nTen animals from each group were used for the biochemical determinations in the is fragments of the sciatic nerve collected. The following biochemical parameters were studied:\nRedox Profile: • Total Superoxide Dismutase (tSOD) enzymatic activity total. • Catalase enzymatic activity. • Intra-axonal accumulation of total hydroperoxides (THP). • Intra-axonal accumulation of malonyldialdehyde (MDA)."}, "diabetic rats [4]": {"test_system": "diabetic rats", "test": "Sensory conduction velocity in the tail, prevention study (Example 1)", "format": "in vivo, Wistar rats", "conditions": "75 μg EGF/ml, day 60", "protocol": "as §4, §5\nFifteen animals were used in each experimental group. In diabetic neuropathy conduction velocity is generally diminished.\nas §1"}, "[5]": {"conditions": "1 ml i.p. once weekly (Treatment group 1)"}, "[6]": {"conditions": "1 ml i.p. three times a week (Treatment group 3)"}}, "data": [{"substance": "EGF containing pharmaceutical composition: Composition with human recombinant EGF: 75 μg/ml in Example 1, 100 μg in 1 ml in Example 2, given intraperitoneally", "values": [{"measurement": "Velocity (conduction velocity of motor fibers)", "setting": "diabetic rats [1]", "result": "54.8 ± 1.66", "unit": "m/s"}, {"measurement": "LPL activity in the sciatic nerve", "setting": "Lipoprotein Lipase (LPL); Treatment group 1 (once weekly i.p., 8 weeks)", "result": "3.75 ± 2.2", "unit": "nmoles RFA/min/g"}, {"measurement": "LPL activity in the sciatic nerve", "setting": "Lipoprotein Lipase (LPL); Treatment group 3 (three times a week i.p., 8 weeks)", "result": "5.41 ± 1.83", "unit": "nmoles RFA/min/g"}, {"measurement": "UNC (NCT test)", "setting": "diabetic rats [2]", "result": "80 ± 5", "unit": "grams"}, {"measurement": "Laser Doppler perfusion of the sciatic nerve", "setting": "right sciatic nerve; [5]", "result": "653.4 ± 41.9", "unit": "LDPI Units"}, {"measurement": "Laser Doppler perfusion of the sciatic nerve", "setting": "right sciatic nerve; [6]", "result": "988.7 ± 80.3", "unit": "LDPI Units"}, {"measurement": "Axon edema", "setting": "diabetic animals", "result": "Reductions in axon edema"}, {"measurement": "Axonal neurofilaments", "setting": "diabetic animals", "result": "Preservation of axonal neurofilaments"}, {"measurement": "Conduction velocity of motor fibers", "setting": "diabetic animals", "result": "Normalization of conduction velocity of motor fibers"}, {"measurement": "Endoneurial collagenization", "setting": "diabetic animals", "result": "Diminution of endoneurial collagenization"}, {"measurement": "Integrity of the myelin sheath of the sciatic nerve", "setting": "diabetic animals", "result": "Improvement in the integrity of the myelin sheath of the sciatic nerve"}, {"measurement": "Vasa nervorum", "setting": "diabetic animals", "result": "Integrity of the vasa nervorum"}, {"measurement": "Catalase activity", "setting": "[3]", "result": "86.1 ± 6.5 units per milligram of protein per minute"}, {"measurement": "MDA (malonyldialdehyde)", "setting": "[3]", "result": "0.1 ± 0.03 nmol/mg of protein"}, {"measurement": "THP (total hydroperoxides)", "setting": "[3]", "result": "55.8 ± 12.7 nmol/mg of protein"}, {"measurement": "tSOD (total Superoxide Dismutase activity)", "setting": "[3]", "result": "1988.4 ± 101.6 units per milligram of protein per minute"}, {"measurement": "SCV (sensitive conduction velocity)", "setting": "diabetic rats [4]; [5]", "result": "38 ± 6", "unit": "m/s"}, {"measurement": "SCV (sensitive conduction velocity)", "setting": "diabetic rats [4]; [6]", "result": "44 ± 9", "unit": "m/s"}]}]}
